Target: T1, hCRTH2 (Homo sapiens, UniProt Q9Y5Y4)
T1 construct: expressed in transfected cells; host or cells: HEK (human embryonic kidney) cells expressing hCRTH2; membrane preparation
T1 sequence (Q9Y5Y4 1-395): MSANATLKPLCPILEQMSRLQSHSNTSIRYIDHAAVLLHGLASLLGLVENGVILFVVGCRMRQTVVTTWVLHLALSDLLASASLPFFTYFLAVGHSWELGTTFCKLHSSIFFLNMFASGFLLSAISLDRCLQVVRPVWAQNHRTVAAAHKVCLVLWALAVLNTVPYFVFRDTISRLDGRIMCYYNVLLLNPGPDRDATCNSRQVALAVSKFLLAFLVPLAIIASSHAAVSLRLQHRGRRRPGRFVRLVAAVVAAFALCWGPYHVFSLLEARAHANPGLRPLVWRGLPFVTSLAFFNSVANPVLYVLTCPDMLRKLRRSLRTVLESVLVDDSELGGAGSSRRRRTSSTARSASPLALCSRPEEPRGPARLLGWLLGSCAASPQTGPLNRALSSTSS
Assay: Radioligand binding assay ([3H]PGD2 competition, HEK-hCRTH2 membranes)
How it was run: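 Filter-bound radioactivity was counted by scintillation after 60 min incubations at room temperature. Membranes (8-20 μg) from HEK cells expressing hCRTH2 competed test ligands against 3.0 nM [3H]PGD2 in Tris-HCl pH 7.4 buffer with EDTA and 2 mM MnCl2; 10 μM PGD2 set non-specific binding.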

| SMILES | Ki ([3H]PGD2 competition, Table B) | Ki ([3H]PGD2 binding, values in text) |
| --- | --- | --- |
| O=C(O)CCCCc1nc2cc(C(=O)N[C@@H]3CCCc4ccncc43)ccc2nc1-c1ccc(F)cc1 [compound 354, (R)-5-(3-(4-fluorophenyl)-7-((5,6,7,8-tetrahydroisoquinolin-8-yl)carbamoyl)quinoxalin-2-yl)pentanoic acid] | 20.1 to 200 nM |  |
| O=C(O)CCCCc1nc2cc(C(=O)N[C@@H]3CCSc4ccccc43)ccc2nc1-c1ccc(F)cc1 [compound 355, (R)-5-(3-(4-fluorophenyl)-7-(thiochroman-4-ylcarbamoyl)quinoxalin-2-yl)pentanoic acid] | 2.1 to 20 nM |  |
| O=C(O)CCCCc1nc2cc(C(=O)N3CCC(n4c(=O)[nH]c5ccccc54)CC3)ccc2nc1-c1ccc(F)cc1 [compound 356, 5-(3-(4-fluorophenyl)-7-(4-(2-oxo-2,3-dihydro-1H-benzo[d]imidazol-1-yl)piperidine-1-carbonyl)quinoxalin-2-yl)pentanoic acid] | 20.1 to 200 nM |  |
| O=C(O)CCCCc1nc2cc(C(=O)N3CCN(c4ccccn4)CC3)ccc2nc1-c1ccc(F)cc1 [compound 357, 5-(3-(4-fluorophenyl)-7-(4-(pyridin-2-yl)piperazine-1-carbonyl)quinoxalin-2-yl)pentanoic acid] | 2.1 to 20 nM |  |
| N#Cc1cccnc1N1CCN(C(=O)c2ccc3nc(-c4ccc(F)cc4)c(CCCCC(=O)O)nc3c2)CC1 [compound 358, 5-(7-(4-(3-cyanopyridin-2-yl)piperazine-l-carbonyl)-3-(4-fluorophenyl)quinoxalin-2-yl)pentanoic acid] | 2.1 to 20 nM |  |
| N#Cc1ccccc1N1CCN(C(=O)c2ccc3nc(-c4ccc(F)cc4)c(CCCCC(=O)O)nc3c2)CC1 [compound 359, 5-(7-(4-(2-cyanophenyl)piperazine-1-carbonyl)-3-(4-fluorophenyl)quinoxalin-2-yl)pentanoic acid] | 2.1 to 20 nM |  |
| O=C(O)CCCCc1nc2cc(C(=O)N3CCN(c4cnccn4)CC3)ccc2nc1-c1ccc(F)cc1 [compound 360, 5-(3-(4-fluorophenyl) 7-(4-(pyrazin-2-yl)piperazine-1-carbonyl)quinoxalin-2-yl)pentanoic acid] | 20.1 to 200 nM |  |
| COc1ccccc1C1CCN(C(=O)c2ccc3nc(-c4ccc(F)cc4)c(CCCCC(=O)O)nc3c2)CC1 [compound 361, 5-(3-(4-fluorophenyl)-7-(4-(2-methoxyphenyl)piperidine-1-carbonyl)quinoxalin-2-yl)pentanoic acid] | 2.1 to 20 nM |  |
| O=C(O)CCCCc1nc2cc(C(=O)N3CCC4(CC3)OCc3ccccc34)ccc2nc1-c1ccc(F)cc1 [compound 362, 5-(3-(4-fluorophenyl)-7-(3H-spiro[isobenzofuran-1,4′-piperidin]-1′-ylcarbonyl)quinoxalin-2-yl)pentanoic acid] | 2.1 to 20 nM |  |
| O=C(O)CCCCc1nc2cc(C(=O)N3CCN(c4ccccc4C(F)(F)F)CC3)ccc2nc1-c1ccc(F)cc1 [compound 363, 5-(3-(4-fluorophenyl)-7-(4-(2-(trifluoromethyl)phenyl)piperazine-1-carbonyl)quinoxalin-2-yl)pentanoic acid] | 2.1 to 20 nM |  |
| O=C(O)CCCCc1nc2cc(C(=O)N3CCN(c4ccccc4Cl)CC3)ccc2nc1-c1ccc(F)cc1 [compound 364, 5-(7-(4-(2-chlorophenyl)piperazine-1-carbonyl)-3-(4-fluorophenyl)quinoxalin-2-yl)pentanoic acid] | 2.1 to 20 nM |  |
| Cc1ccccc1N1CCN(C(=O)c2ccc3nc(-c4ccc(F)cc4)c(CCCCC(=O)O)nc3c2)CC1 [compound 365, 5-(3-(4-fluorophenyl)-7-(4-(o-tolyl)piperazine-1-carbonyl)quinoxalin-2-yl)pentanoic acid] | 2.1 to 20 nM |  |
| Cc1cccc(N2CCN(C(=O)c3ccc4nc(-c5ccc(F)cc5)c(CCCCC(=O)O)nc4c3)CC2)c1 [compound 366, 5-(3-(4-fluorophenyl)-7-(4-(m-tolyl)piperazine-1-carbonyl)quinoxalin-2-yl)pentanoic acid] | 2.1 to 20 nM |  |
| COc1ccc(N2CCN(C(=O)c3ccc4nc(-c5ccc(F)cc5)c(CCCCC(=O)O)nc4c3)CC2)cc1 [compound 367, 5-(3-(4-fluorophenyl)-7-(4-(4-methoxyphenyl)piperazine-1-carbonyl)quinoxalin-2-yl)pentanoic acid] | 2.1 to 20 nM |  |
| Cc1cnccc1N1CCN(C(=O)c2ccc3nc(-c4ccc(F)cc4)c(CCCCC(=O)O)nc3c2)CC1 [compound 368, 5-(3-(4-fluorophenyl)-7-(4-(3-methylpyridin-4-yl)piperazine-1-carbonyl)quinoxalin-2-yl)pentanoic acid] | 20.1 to 200 nM | 21.4 nM |
| Cc1ccc(N2CCN(C(=O)c3ccc4nc(-c5ccc(F)cc5)c(CCCCC(=O)O)nc4c3)CC2)cc1 [compound 369, 5-(3-(4-fluorophenyl)-7-(4-(p-tolyl)piperazine-1-carbonyl)quinoxalin-2-yl)pentanoic acid] | 2.1 to 20 nM |  |

| SMILES | Ki ([3H]PGD2 competition, Table B) | Ki ([3H]PGD2 binding, values in text) |
| --- | --- | --- |
| O=C(O)CCCCc1nc2cc(C(=O)N[C@@H]3CCCc4cccnc43)ccc2nc1-c1ccccc1 [compound 370, (R)-8-(3-(4-carboxybutyl)-2-phenylquinoxaline-6-carboxamido)-5,6,7,8-tetrahydroquinolin-1-ium 2,2,2-trifluoroacetic acid] | 201 to 700 nM |  |
| O=C(O)CCCCc1nc2cc(C(=O)N[C@H]3CCCc4cccnc43)ccc2nc1-c1ccccc1 [compound 371, (S)-8-(3-(4-carboxybutyl)-2-phenylquinoxaline-6-carboxamido)-5,6,7,8-tetrahydroquinolin-1-ium 2,2,2-trifluoroacetic acid] | 2.1 to 20 nM |  |
| COc1ccc(C2CN(C(=O)c3ccc4nc(-c5ccc(F)cc5)c(CCCCC(=O)O)nc4c3)C2)cc1 [compound 372, 5-(3-(4-fluorophenyl)-7-(3-(4-methoxyphenyl)azetidine-1-carbonyl)quinoxalin-2-yl)pentanoic acid] | 2.1 to 20 nM |  |
| COc1cccc(C2CN(C(=O)c3ccc4nc(-c5ccc(F)cc5)c(CCCCC(=O)O)nc4c3)C2)c1 [compound 373, 5-(3-(4-fluorophenyl)-7-(3-(3-methoxyphenyl)azetidine-1-carbonyl)quinoxalin-2-yl)pentanoic acid] | 2.1 to 20 nM |  |
| C[C@@H](NC(=O)c1ccc2nc(-c3ccc(Cl)cc3)c(CCCCC(=O)O)nc2c1)c1ccc(F)c(F)c1 [compound 374, (R)-5-(3-(4-chlorophenyl)-7-((1-(3,4-difluorophenyl)ethyl)carbamoyl)quinoxalin-2-yl)pentanoic acid] | 0.1 to 2 nM |  |
| C[C@H](NC(=O)c1ccc2nc(-c3ccc(Cl)cc3)c(CCCCC(=O)O)nc2c1)c1ccc(F)c(F)c1 [compound 375, (S)-5-(3-(4-chlorophenyl)-7-((1-(3,4-difluorophenyl)ethyl)carbamoyl)quinoxalin-2-yl)pentanoic acid] | 0.1 to 2 nM |  |
| CC[C@@H](NC(=O)c1ccc2nc(-c3ccc(Cl)cc3)c(CCCCC(=O)O)nc2c1)c1ccc(F)cc1 [compound 376, (R)-5-(3-(4-chlorophenyl)-7-((1-(4-fluorophenyl)propyl)carbamoyl)quinoxalin-2-yl)pentanoic acid] | 2.1 to 20 nM |  |
| CC[C@H](NC(=O)c1ccc2nc(-c3ccc(Cl)cc3)c(CCCCC(=O)O)nc2c1)c1ccc(F)cc1 [compound 377] | 2.1 to 20 nM |  |
| CN(C(=O)c1ccc2nc(-c3ccccc3)c(CCCCC(=O)O)nc2c1)[C@@H]1CCCc2ccccc21 [compound 378, (R)-5-(7-(methyl(1,2,3,4-tetrahydronaphthalen-1-yl)carbamoyl)-3-phenylquinoxalin-2-yl)pentanoic acid] | 20.1 to 200 nM |  |
| CN(C(=O)c1ccc2nc(-c3ccccc3)c(CCCCC(=O)O)nc2c1)[C@@H]1CCCc2cc(F)ccc21 [compound 379, (R)-5-(7-((6-fluoro-1,2,3,4-tetrahydronaphthalen-1-yl)(methyl)carbamoyl)-3-phenylquinoxalin-2-yl)pentanoic acid] | 2.1 to 20 nM |  |
| CN(C(=O)c1ccc2nc(-c3ccccc3)c(CCCCC(=O)O)nc2c1)[C@@H]1CCCc2cc(Cl)ccc21 [compound 380, (R)-5-(7-((6-chloro-1,2,3,4-tetrahydronaphthalen-1-yl)(methyl)carbamoyl)-3-phenylquinoxalin-2-yl)pentanoic acid] | 2.1 to 20 nM |  |
| O=C(O)CCCCc1nc2cc(C(=O)N[C@@H]3CCc4cc(F)ccc43)ccc2nc1-c1ccc(Cl)cc1 [compound 381, (R)-5-(3-(4-chlorophenyl)-7-((5-fluoro-2,3-dihydro-1H-inden-1-yl)carbamoyl)quinoxalin-2-yl)pentanoic acid] | 0.1 to 2 nM |  |
| O=C(O)CCCCc1nc2cc(C(=O)N[C@H]3CCc4cc(F)ccc43)ccc2nc1-c1ccc(Cl)cc1 [compound 382, (S)-5-(3-(4-chlorophenyl)-7-((5-fluoro-2,3-dihydro-1H-inden-1-yl)carbamoyl)quinoxalin-2-yl)pentanoic acid] | 0.1 to 2 nM |  |
| O=C(O)CCCCc1nc2cc(C(=O)N[C@@H]3CCc4cc(Cl)ccc43)ccc2nc1-c1ccc(Cl)cc1 [compound 383, (R)-5-(7-((5-chloro-2,3-dihydro-1H-inden-1-yl)carbamoyl)-3-(4-chlorophenyl)quinoxalin-2-yl)pentanoic acid] | 0.1 to 2 nM |  |
| O=C(O)CCCCc1nc2cc(C(=O)N[C@H]3CCc4cc(Cl)ccc43)ccc2nc1-c1ccc(Cl)cc1 [compound 384, (S)-5-(7-((5-chloro-2,3-dihydro-1H-inden-1-yl)carbamoyl)-3-(4-chlorophenyl)quinoxalin-2-yl)pentanoic acid] | 0.1 to 2 nM |  |

From patent US9469615B2, “Quinoxalines and AZA-quinoxalines as CRTH2 receptor modulators” (Merck Sharp & Dohme Corp., priority 2010, dated 2016)
